Publication PMC8962522, “Direct interaction of TrkA/CD44v3 is essential for NGF-promoted aggressiveness of breast cancer cells” (Journal of Experimental & Clinical Cancer Research : CR, 2022)

How the values were obtained:
[1] = tested on: TrkA-His tagged extracellular domain protein (Ala 34-Gly423); experiment: MST binding of CD44v3 mimetic peptides to TrkA; conditions: TrkA-His 200 nM labelled with RED-Tris-NTA, PBS-T
Procedure: MST was conducted using an NT.115 A Pico MST instrument (Nano Temper Technologies GmbH) equipped with red and blue filter sets. The TrkA-His tagged extracellular domain protein (Ala 34-Gly423) (9966-TK-050; R&D Systems, United Kingdom), diluted to 200 nM in PBS-T buffer (supplied by the vendor), was labeled using a Monolith His-Tag Labeling Kit with RED-Tris-NTA (Nano Temper). The RED-Tris-NTA dye was diluted in PBS-T to 100 nM. The mix was incubated at RT in the dark for 30 min. Next, an extract expressing CD44v3-labeled protein (CD44v3-His) and ligand and/or TrkA was mixed at a 1:1 ratio and incubated at RT in the dark for 15 min. For the binding check, peptides and TrkA-His were used. Capillaries were filled individually and loaded into the instrument. The data were acquired using high MST power and 100% LED. The data were analyzed using MO Control Software (Nano Temper).
Fig. 2 The C-terminal region of CD44v3 and the His112 residue of TrkA are involved in the CD44v3/TrkA interaction. TrkA/CD44v3 complex association was detected by the proximity ligation assay (PLA) in wild-type TrkA- or TrkA_H112A- and CD44v3-expressing COS-7 cells. Proximity ligation assays were performed after 0, 5 and 30 min of NGF treatment (100 ng/ml). Representative images of signals detected by PLA (A) and their quantification (B). Sequence of CD44 exon variant 3 and deletion mutant Δ3 or Δ4 (C). TrkA/CD44v3 complex association was detected by PLA in wild-type TrkA and CD44v3 wild type or CD44v3 deleted mutant Δ3 or Δ4 expressing COS-7 (D, E). Sequence of CD44v3 mimetic peptides (F) and structure (G). TrkA binding to CD44v3 mimetic peptides by microscale thermophoresis (H) and effects of CD44v3 mimetic peptides 3 (RDRHLSFSGSG) and 4 ([…]) on TrkA/CD44v3 complex formation (I, J). Quantification of PLA was performed using ImageJ software (30 fields per condition of three different experiments). Statistical analyses were performed using one-way ANOVA followed by Bonferroni’s posttest.
To block the TrkA-CD44v3 association, 4 mimetic peptides of CD44v3 were designed corresponding to zone 1 [(K) STSSNTISAG], zone 2 (WEPNEENEDE), zone 3 (RDRHLSFSGSG) and zone 4 (IDDDEDFISST) (Fig. 2F & G). The binding capacities of the CD44v3 mimetic peptides to TrkA were then measured by MST (Fig. 2H). […] To confirm mimetic peptide 4 binding, we assessed its ability to bind TrkA using nanoscale differential scanning fluorimetry (nanoDSF; Supplementary Fig. 6A & B).

MDA-MB-231 cells = experiment: Clonogenicity assay, MDA-MB-231; type: cell-based; conditions: peptide 50 ng/mL, 2% FBS; versus control cells or scramble peptide; siCD44v3: 10 days after siRNA transfection
Procedure: The clonogenicity assay was performed to assess cell survival. MDA-MB-231 cells (250 cells/mL) were seeded into 6 plate wells (2% FBS medium; 2 mL/well). When the cells attached (within 3 h), they were treated with the peptide (scramble or P4; 50 ng/mL) or no peptide (control) and incubated for 24 h. The next day, a second-round treatment was performed. Three days later, the medium was changed, and the cells were incubated for another 5 days. After 10 days of culture, the medium was removed, and the cells were washed twice (PBS 1×), fixed (4% PAF for 30 min at RT), colored (violet crystal 2%; 30 min; RT) and washed twice (distilled water). Representative pictures of one well were taken, and the colonies were counted.
Therefore, in this study, we assessed TrkA binding to CD44v3 in MDA-MB-231 cells, which were used as TNBC model cells. […] Therefore, we evaluated the physiological consequences of TrkA/CD44v3 complex dissociation induced by CD44v3 mimetic peptide 4 on MDA-MB-231 cell phenotypes (Fig. 4). […] We first determined the effect of CD44v3 on the length-to-width (l/w) ratio of the cells (elongation factor) (Fig. 4C-E). […]
Fig. 4 CD44v3 mimetic peptide 4 inhibits MDA-MB-231 breast cancer cell growth and migration/invasion. Clonogenic MDA-MB-231 cell growth was measured after 10 days in the presence of a scramble peptide (SP) or CD44v3 mimetic peptide (P4) (A, B). […]

binding to TrkA by MST (in words) [1]: could bind TrkA
Sequence: IDDDEDFISST [Peptide 4, mimetic peptide 4 (…) corresponding to the C-terminal region of CD44v3]
effect on clonogenic growth of MDA-MB-231 cells (MDA-MB-231 cells): reduced the proportion of MDA-MB-231 colony forming units by two-thirds
